Tests used:
Akt-pS473 in U87MG cells = details: Homo sapiens, U-87 MG, read-out: U87 Akt-pS473 % Inhibition or IC50, nM (IC50), U87MG cells
[1] = molecular target: mTOR (human recombinant aa mTOR 1360-2549) (Homo sapiens (Human), UniProt P42345); assay: mTOR enzymatic test by TR-FRET (phosphorylation of GFP-4EBP1); type: biochemical
Procedure, shortened: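 TR-FRET detection of GFP-4EBP1 phosphorylation by a terbium-labelled anti-phospho-Thr46 antibody. Kinase reaction ran 30 min at room temperature, was quenched with EDTA (10 mM final) plus Tb-antibody (2 nM final) and left 60 min. Emission at 520 and 490 nm after 340 nm excitation, reported as the 520/490 ratio.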

U87MG tumour cells = assay: Test of in vitro proliferation of U87MG tumour cells; type: cell-based; details: Homo sapiens, U-87 MG, 72 h, U87MG cells, 72 hours; read-out: U87 Cell Proliferation IC50
Description: Model 4: Test of in vitro Proliferation of U87MG Tumour Cells.
The cell growth is determined with the reagent CellTiter 96 AQueous One Solution Cell Proliferation Assay from Promega (Cat. No. G3581).

PI3Kα (p110α/p85α) = PI3Kα (p110α/p85α) (Homo sapiens (Human), UniProt P42336); assay: PI3Kα enzymatic test by measuring the consumption of ATP; type: biochemical
Procedure, shortened: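 p110α/p85α (1.7 μg/ml) with 50 μM PIP2 and 2 μM ATP in pH 7.5 Tris buffer with EGTA, MgCl2, Chaps, DTT; reaction 90 min. Remaining ATP measured by luciferin/luciferase luminescence; IC50 from threefold serial dilutions spanning at least 10 000-fold.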

Sequence of PI3Kα (p110α/p85α) (P42336 whole entry): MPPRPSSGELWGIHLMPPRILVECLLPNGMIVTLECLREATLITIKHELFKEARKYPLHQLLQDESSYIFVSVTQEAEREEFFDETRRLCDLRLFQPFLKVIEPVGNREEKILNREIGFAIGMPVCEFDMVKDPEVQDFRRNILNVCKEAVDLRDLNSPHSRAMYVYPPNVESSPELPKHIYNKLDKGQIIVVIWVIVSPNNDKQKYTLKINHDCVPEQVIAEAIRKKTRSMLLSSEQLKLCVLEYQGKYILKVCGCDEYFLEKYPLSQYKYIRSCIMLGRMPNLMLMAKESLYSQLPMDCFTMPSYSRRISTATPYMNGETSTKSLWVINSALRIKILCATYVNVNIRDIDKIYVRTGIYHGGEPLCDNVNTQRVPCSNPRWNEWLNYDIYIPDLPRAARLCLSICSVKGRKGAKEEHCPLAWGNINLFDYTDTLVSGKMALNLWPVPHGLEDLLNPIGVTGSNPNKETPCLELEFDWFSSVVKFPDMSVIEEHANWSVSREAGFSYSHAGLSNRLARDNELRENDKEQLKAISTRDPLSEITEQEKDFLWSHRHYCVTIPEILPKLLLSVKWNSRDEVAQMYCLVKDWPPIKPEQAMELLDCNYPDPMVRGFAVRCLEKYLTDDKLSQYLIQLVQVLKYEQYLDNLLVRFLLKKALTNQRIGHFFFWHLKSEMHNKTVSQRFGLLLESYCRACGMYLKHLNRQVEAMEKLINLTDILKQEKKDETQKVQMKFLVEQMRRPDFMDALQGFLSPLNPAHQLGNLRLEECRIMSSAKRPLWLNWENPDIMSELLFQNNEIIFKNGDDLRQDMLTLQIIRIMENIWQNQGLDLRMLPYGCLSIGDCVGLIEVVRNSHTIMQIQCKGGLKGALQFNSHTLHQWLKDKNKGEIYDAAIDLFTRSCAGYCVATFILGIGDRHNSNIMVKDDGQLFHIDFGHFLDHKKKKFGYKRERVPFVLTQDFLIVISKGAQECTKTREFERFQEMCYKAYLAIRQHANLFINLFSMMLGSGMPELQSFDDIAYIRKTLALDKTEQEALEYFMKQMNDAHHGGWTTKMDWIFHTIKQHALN
Sequence of PI3Kα (p110α/p85α) (P27986 whole entry partner): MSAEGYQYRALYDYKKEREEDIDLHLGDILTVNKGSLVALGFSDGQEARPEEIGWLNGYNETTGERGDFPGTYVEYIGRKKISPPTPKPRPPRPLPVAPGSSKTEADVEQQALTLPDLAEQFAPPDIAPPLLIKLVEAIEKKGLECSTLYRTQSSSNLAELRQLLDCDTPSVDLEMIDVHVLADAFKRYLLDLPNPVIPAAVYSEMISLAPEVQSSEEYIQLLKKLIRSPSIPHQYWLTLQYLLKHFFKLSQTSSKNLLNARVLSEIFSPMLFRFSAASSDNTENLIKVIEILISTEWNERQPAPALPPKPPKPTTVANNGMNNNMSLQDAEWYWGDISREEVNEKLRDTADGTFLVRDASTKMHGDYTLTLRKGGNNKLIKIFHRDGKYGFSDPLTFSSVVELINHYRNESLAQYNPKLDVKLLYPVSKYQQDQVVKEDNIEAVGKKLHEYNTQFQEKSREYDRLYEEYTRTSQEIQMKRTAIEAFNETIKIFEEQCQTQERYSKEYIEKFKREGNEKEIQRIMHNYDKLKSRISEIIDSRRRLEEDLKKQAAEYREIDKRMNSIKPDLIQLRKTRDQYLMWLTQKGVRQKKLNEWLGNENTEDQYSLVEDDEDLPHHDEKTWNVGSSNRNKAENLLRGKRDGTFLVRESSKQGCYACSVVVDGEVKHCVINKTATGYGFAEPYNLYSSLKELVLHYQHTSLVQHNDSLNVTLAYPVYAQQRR
Sequence of mTOR (human recombinant aa mTOR 1360-2549) (P42345 1360-2549): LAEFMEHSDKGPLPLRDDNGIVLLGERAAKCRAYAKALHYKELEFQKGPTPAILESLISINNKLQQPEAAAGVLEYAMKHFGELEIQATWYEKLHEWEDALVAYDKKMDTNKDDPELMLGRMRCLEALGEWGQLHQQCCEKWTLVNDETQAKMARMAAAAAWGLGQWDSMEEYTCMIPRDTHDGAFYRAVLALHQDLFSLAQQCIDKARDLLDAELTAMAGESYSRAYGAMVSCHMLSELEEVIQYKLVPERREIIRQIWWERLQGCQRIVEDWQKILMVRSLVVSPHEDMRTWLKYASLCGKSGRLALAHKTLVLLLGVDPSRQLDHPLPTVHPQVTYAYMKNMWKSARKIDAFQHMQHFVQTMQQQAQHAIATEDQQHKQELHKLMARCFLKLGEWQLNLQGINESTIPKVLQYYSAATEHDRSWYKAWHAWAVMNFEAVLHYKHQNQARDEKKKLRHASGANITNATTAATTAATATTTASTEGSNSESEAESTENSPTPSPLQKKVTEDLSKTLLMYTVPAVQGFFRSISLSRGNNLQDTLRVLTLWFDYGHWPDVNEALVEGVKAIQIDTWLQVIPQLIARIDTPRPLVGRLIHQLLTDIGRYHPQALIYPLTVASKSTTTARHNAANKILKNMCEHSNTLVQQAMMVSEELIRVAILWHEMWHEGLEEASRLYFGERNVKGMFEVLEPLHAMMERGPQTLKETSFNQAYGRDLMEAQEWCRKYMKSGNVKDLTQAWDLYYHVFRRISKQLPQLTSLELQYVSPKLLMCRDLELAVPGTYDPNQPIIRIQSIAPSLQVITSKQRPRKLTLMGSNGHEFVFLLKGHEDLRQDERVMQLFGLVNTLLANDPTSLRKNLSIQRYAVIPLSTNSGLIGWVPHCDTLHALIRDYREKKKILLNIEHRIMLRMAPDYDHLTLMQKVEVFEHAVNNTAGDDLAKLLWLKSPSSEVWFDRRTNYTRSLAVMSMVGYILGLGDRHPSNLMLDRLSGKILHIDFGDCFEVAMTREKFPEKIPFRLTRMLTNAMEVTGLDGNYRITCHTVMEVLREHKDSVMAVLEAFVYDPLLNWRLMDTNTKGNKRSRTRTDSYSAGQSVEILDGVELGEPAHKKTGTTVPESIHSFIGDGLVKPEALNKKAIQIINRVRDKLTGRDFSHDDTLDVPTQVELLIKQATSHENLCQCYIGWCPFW

`Cc1ccc(NC(=O)Nc2ccc(-c3nc(N4CC5CCC(C4)O5)nc4c3C(=O)N(C)CC(C)(C)O4)cc2F)cn1` [Example 66, 1-{2-Fluoro-4-[6,8,8-trimethyl-2-(8-oxa-3-azabicyclo[3.2.1]oct-3-yl)-5-oxo-5,6,7,8-tetrahydro-9-oxa-1,3,6-triazabenzocyclohepten-4-yl]phenyl}-3-(6-methylpyridin-3-yl)urea] showed an IC50 (Akt-pS473 in U87MG cells) of 21 nM, an IC50 [1] of 16 nM and an IC50 (U87MG tumour cells) of 71 nM. The “PI3Ka IC50” value (PI3Kα (p110α/p85α)) was 2950 nM.

For `Cc1ccc(NC(=O)Nc2ccc(-c3nc(N4C5CCC4COC5)nc4c3C(=O)N(C)CC(C)(C)O4)cc2F)cn1` [Example 67, 1-{2-Fluoro-4-[6,8,8-trimethyl-2-(3-oxa-8-azabicyclo[3.2.1]oct-8-yl)-5-oxo-5,6,7,8-tetrahydro-9-oxa-1,3,6-triazabenzocyclohepten-4-yl]phenyl}-3-(6-methylpyridin-3-yl)urea], the IC50 (Akt-pS473 in U87MG cells) was 20 nM, the IC50 [1] was 15 nM and the IC50 (U87MG tumour cells) was 69 nM. The “PI3Ka IC50” value (PI3Kα (p110α/p85α)) was over 10000 nM.

`CN1CC(C)(C)Oc2nc(N3C4CCC3COC4)nc(-c3ccc(NC(=O)Nc4ccncc4)cc3)c2C1=O` [Example 68, 1-Pyridin-4-yl-3-{4-[6,8,8-trimethyl-2-(3-oxa-8-azabicyclo[3.2.1]oct-8-yl)-5-oxo-5,6,7,8-tetrahydro-9-oxa-1,3,6-triazabenzocyclohepten-4-yl]phenyl}urea] was tested, and the IC50 (Akt-pS473 in U87MG cells) was 16 nM, the IC50 [1] was 12 nM and the IC50 (U87MG tumour cells) was 82 nM. For the same compound, the “PI3Ka IC50” value (PI3Kα (p110α/p85α)) was 1360 nM.

Work on `CN1CC(C)(C)Oc2nc(N3CC4CCC(C3)O4)nc(-c3ccc(NC(=O)Nc4ccncc4)cc3)c2C1=O` [Example 69, 1-Pyridin-4-yl-3-{4-[6,8,8-trimethyl-2-(8-oxa-3-azabicyclo[3.2.1]oct-3-yl)-5-oxo-5,6,7,8-tetrahydro-9-oxa-1,3,6-triazabenzocyclohepten-4-yl]phenyl}urea] yielded an IC50 (Akt-pS473 in U87MG cells) of 35 nM, an IC50 [1] of 6 nM and an IC50 (U87MG tumour cells) of 79 nM. For the same compound, the “PI3Ka IC50” value (PI3Kα (p110α/p85α)) was 472 nM.

For `COc1ccnc(NC(=O)Nc2ccc(-c3nc(N4C5CCC4COC5)nc4c3C(=O)N(C)CC(C)(C)O4)cc2)c1` [Example 70, 1-(4-Methoxypyridin-2-yl)-3-{4-[6,8,8-trimethyl-2-(3-oxa-8-azabicyclo[3.2.1]oct-8-yl)-5-oxo-5,6,7,8-tetrahydro-9-oxa-1,3,6-triazabenzocyclohepten-4-yl]phenyl}urea], the IC50 (Akt-pS473 in U87MG cells) was 40 nM, the IC50 [1] was 27 nM and the IC50 (U87MG tumour cells) was 288 nM. For the same compound, the “PI3Ka IC50” value (PI3Kα (p110α/p85α)) was over 10000 nM.

In the case of `CCN1CC(C)(C)Oc2nc(N3CC4CCC(C3)O4)nc(-c3ccc(NC(=O)Nc4ccncc4)cc3F)c2C1=O` [Example 71, 1-{4-[6-Ethyl-8,8-dimethyl-2-(8-oxa-3-azabicyclo[3.2.1]oct-3-yl)-5-oxo-5,6,7,8-tetrahydro-9-oxa-1,3,6-triazabenzocyclohepten-4-yl]-3-fluorophenyl}-3-pyridin-4-ylurea], the IC50 (Akt-pS473 in U87MG cells) is reported as 59 nM, the IC50 [1] is reported as 21 nM and the IC50 (U87MG tumour cells) is reported as 209 nM. For the same compound, the “PI3Ka IC50” value (PI3Kα (p110α/p85α)) was over 10000 nM.

With `CCN1CC(C)(C)Oc2nc(N3CC4CCC(C3)O4)nc(-c3ccc(NC(=O)Nc4ccc(N5CCC(O)C5)cn4)cc3)c2C1=O` (stereo not drawn) [Example 72, 1-{4-[6-Ethyl-8,8-dimethyl-2-(8-oxa-3-azabicyclo[3.2.1]oct-3-yl)-5-oxo-5,6,7,8-tetrahydro-9-oxa-1,3,6-triazabenzocyclohepten-4-yl]phenyl}-3-[5-(3-hydroxypyrrolidin-1-yl)pyridin-2-yl]urea] the IC50 (Akt-pS473 in U87MG cells) was 58 nM, the IC50 [1] was 23 nM and the IC50 (U87MG tumour cells) was 498 nM. The “PI3Ka IC50” value (PI3Kα (p110α/p85α)) was over 10000 nM.

`C[C@H]1COCCN1c1ccc(NC(=O)Nc2ccc(-c3nc(N4CC5CCC(C4)O5)nc4c3C(=O)N(C)CC(C)(C)O4)cc2F)cn1` [Example 73, 1-{2-Fluoro-4-[6,8,8-trimethyl-2-(8-oxa-3-azabicyclo[3.2.1]oct-3-yl)-5-oxo-5,6,7,8-tetrahydro-9-oxa-1,3,6-triazabenzocyclohepten-4-yl]phenyl}-3-[6-((S)-3-methylmorpholin-4-yl)pyridin-3-yl]urea] gave an IC50 (Akt-pS473 in U87MG cells) of 48 nM, an IC50 [1] of 71 nM and an IC50 (U87MG tumour cells) of 119 nM. For the same compound, the “PI3Ka IC50” value (PI3Kα (p110α/p85α)) was 5910 nM.

In the case of `C[C@H]1COCCN1c1ccc(NC(=O)Nc2ccc(-c3nc(N4C5CCC4COC5)nc4c3C(=O)N(C)CC(C)(C)O4)cc2F)cn1` [Example 74, 1-{2-Fluoro-4-[6,8,8-trimethyl-2-(3-oxa-8-azabicyclo[3.2.1]oct-8-yl)-5-oxo-5,6,7,8-tetrahydro-9-oxa-1,3,6-triazabenzocyclohepten-4-yl]phenyl}-3-[6-((S)-3-methylmorpholin-4-yl)pyridin-3-yl]urea], the IC50 (Akt-pS473 in U87MG cells) is reported as 31 nM, the IC50 [1] is reported as 64 nM and the IC50 (U87MG tumour cells) is reported as 126 nM. The “PI3Ka IC50” value (PI3Kα (p110α/p85α)) was over 10000 nM.

For `CCN1CC(C)(C)Oc2nc(N3[C@@H]4CC[C@H]3COC4)nc(-c3ccc(NC(=O)Nc4ccncc4F)cc3)c2C1=O` [Example 75, 1-[4-((1S,5R)-6-Ethyl-8,8-dimethyl-2-3-oxa-8-azabicyclo[3.2.1]oct-8-yl-5-oxo-5,6,7,8-tetrahydro-9-oxa-1,3,6-triazabenzocyclohepten-4-yl)phenyl]-3-(3-fluoropyridin-4-yl)urea], the IC50 (Akt-pS473 in U87MG cells) was 8 nM, the IC50 [1] was 40 nM and the IC50 (U87MG tumour cells) was 47 nM. For the same compound, the “PI3Ka IC50” value (PI3Kα (p110α/p85α)) was 5570 nM.

`CCN1CC(C)(C)Oc2nc(N3CC4CCC(C3)O4)nc(-c3ccc(NC(=O)Nc4ccncc4F)c(F)c3)c2C1=O` [Example 76] gave an IC50 (Akt-pS473 in U87MG cells) of 29 nM, an IC50 [1] of 28 nM and an IC50 (U87MG tumour cells) of 367 nM. The “PI3Ka IC50” value (PI3Kα (p110α/p85α)) was 2360 nM.

`CCN1CC(C)(C)Oc2nc(N3CC4CCC(C3)O4)nc(-c3ccc(NC(=O)Nc4ccc(OC5CCOC5)cc4)c(F)c3)c2C1=O` (stereo not drawn) [Example 77, 1-{4-[6-Ethyl-8,8-dimethyl-2-(8-oxa-3-azabicyclo[3.2.1]oct-3-yl)-5-oxo-5,6,7,8-tetrahydro-9-oxa-1,3,6-triazabenzocyclohepten-4-yl]-2-fluorophenyl}-3-[4-(tetrahydrofuran-3-yloxy)phenyl]urea] gave an IC50 (Akt-pS473 in U87MG cells) of 16 nM, an IC50 [1] of 56 nM and an IC50 (U87MG tumour cells) of 53 nM. For the same compound, the “PI3Ka IC50” value (PI3Kα (p110α/p85α)) was 4490 nM.

Compound `CCN1CC(C)(C)Oc2nc(N3CC4CCC(C3)O4)nc(-c3ccc(NC(=O)Nc4ccnc(N(C)C)c4)c(F)c3)c2C1=O` [Example 78, 1-(2-Dimethylaminopyridin-4-yl)-3-{4-[6-ethyl-8,8-dimethyl-2-(8-oxa-3-azabicyclo[3.2.1]oct-3-yl)-5-oxo-5,6,7,8-tetrahydro-9-oxa-1,3,6-triazabenzocyclohepten-4-yl]-2-fluorophenyl}urea] has an IC50 (Akt-pS473 in U87MG cells) of 28 nM, an IC50 [1] of 90 nM and an IC50 (U87MG tumour cells) of 83 nM. The “PI3Ka IC50” value (PI3Kα (p110α/p85α)) was 6260 nM.

`CCN1CC(C)(C)Oc2nc(N3C4CCC3COC4)nc(-c3ccc(NC(=O)Nc4cc(OC)ccn4)cc3)c2C1=O` [Example 79, 1-{4-[6-Ethyl-8,8-dimethyl-2-(3-oxa-8-azabicyclo[3.2.1]oct-8-yl)-5-oxo-5,6,7,8-tetrahydro-9-oxa-1,3,6-triazabenzocyclohepten-4-yl]phenyl}-3-(4-methoxypyridin-2-yl)urea] was tested, and the IC50 (Akt-pS473 in U87MG cells) was 41 nM, the IC50 [1] was 53 nM and the IC50 (U87MG tumour cells) was 383 nM. For the same compound, the “PI3Ka IC50” value (PI3Kα (p110α/p85α)) was over 10000 nM.

Work on `CCN1CC(C)(C)Oc2nc(N3CC4CCC(C3)O4)nc(-c3ccc(NC(=O)Nc4ccnc(N5CCN(S(C)(=O)=O)CC5)c4)c(F)c3)c2C1=O` [Example 80, 1-{4-[6-Ethyl-8,8-dimethyl-2-(8-oxa-3-azabicyclo[3.2.1]oct-3-yl)-5-oxo-5,6,7,8-tetrahydro-9-oxa-1,3,6-triazabenzocyclohepten-4-yl]-2-fluorophenyl}-3-[2-(4-methanesulfonylpiperazin-1-yl)pyridin-4-yl]urea] yielded an IC50 (Akt-pS473 in U87MG cells) of 48 nM, an IC50 [1] of 72 nM and an IC50 (U87MG tumour cells) of 151 nM. The “PI3Ka IC50” value (PI3Kα (p110α/p85α)) was over 10000 nM.

`CCN1CC(C)(C)Oc2nc(N3CC4CCC(C3)O4)nc(-c3ccc(NC(=O)Nc4ccc(N5CCN(C(=O)OC)CC5)nc4)c(F)c3)c2C1=O` [Example 81, 4-[5-(3-{4-[6-Ethyl-8,8-dimethyl-2-(8-oxa-3-azabicyclo[3.2.1]oct-3-yl)-5-oxo-5,6,7,8-tetrahydro-9-oxa-1,3,6-triazabenzocyclohepten-4-yl]-2-fluorophenyl}ureido)pyridin-2-yl]piperazine-1-carboxylic acid methyl ester] showed an IC50 (Akt-pS473 in U87MG cells) of 17 nM, an IC50 [1] of 124 nM and an IC50 (U87MG tumour cells) of 108 nM. The “PI3Ka IC50” value (PI3Kα (p110α/p85α)) was 2100 nM.

In the case of `CN1CC(C)(C)Oc2nc(N3C4CCC3COC4)nc(-c3ccc(NC(=O)Nc4ccncc4)c(F)c3)c2C1=O` [Example 82, 1-{2-Fluoro-4-[6,8,8-trimethyl-2-(3-oxa-8-azabicyclo[3.2.1]oct-8-yl)-5-oxo-5,6,7,8-tetrahydro-9-oxa-1,3,6-triazabenzocyclohepten-4-yl]phenyl}-3-pyridin-4-ylurea], the IC50 (Akt-pS473 in U87MG cells) is reported as 13 nM, the IC50 [1] is reported as 21 nM and the IC50 (U87MG tumour cells) is reported as 29 nM. For the same compound, the “PI3Ka IC50” value (PI3Kα (p110α/p85α)) was 2240 nM.

`CN1CC(C)(C)Oc2nc(N3CC4CCC(C3)O4)nc(-c3ccc(NC(=O)Nc4ccncc4)c(F)c3)c2C1=O` [Example 83, 1-{2-Fluoro-4-[6,8,8-trimethyl-2-(8-oxa-3-azabicyclo[3.2.1]oct-3-yl)-5-oxo-5,6,7,8-tetrahydro-9-oxa-1,3,6-triazabenzocyclohepten-4-yl]phenyl}-3-pyridin-4-ylurea] showed an IC50 (Akt-pS473 in U87MG cells) of 16 nM, an IC50 [1] of 20 nM and an IC50 (U87MG tumour cells) of 41 nM. The “PI3Ka IC50” value (PI3Kα (p110α/p85α)) was 1460 nM.

— patent publication US9120812B2, “Pyrimidooxazocine derivatives as mTOR-inhibitors” (SANOFI, priority 2012, dated 2015)
